Measured values as given in patent US20100168228A1, “NOVEL CHEMOTHERAPEUTIC AGENTS AGAINST INFLAMMATION AND CANCER” (RELIANCE LIFE SCIENCES PVT. LTD., priority 2006, published 2010).

Experiments:
Jurkat cells [1] = assay: Lipid peroxidation, TBARS assay; assay type: cell-based, human; settings: pretreated 3 h, TNF 1 nM 1 h
Protocol: Lipid peroxidation was assessed by the TBARS assay, which detects mainly malondialdehyde (MDA), a product of the peroxidation of polyunsaturated fatty acids and related esters. TBARS were measured by a modification of the method described previously, (Ohkawa et al., Anal. Biochem. 95:351-358. (1979)). Jurkat cells, 6×10^6 cells in 2 ml were pretreated with either media or different concentrations of CAMVE (as described in the Figure legends) for 3 h and then stimulated with 1 nM TNF for 1 h. Cells were washed before undergoing three cycles of freeze-thawing in 200 μl of water. A 20 μl aliquot was subsequently removed for Bradford protein determination, and 800 μl of assay mix (0.4% (w/v) thiobarbituric acid, 0.5% (w/v) SDS, 9.4% (v/v) acetic acid, pH 3.5) was added to the remaining sample. Samples were incubated for 60 min at 95° C., cooled at room temperature, and centrifuged at 14,000×g for 10 min, and the absorbance of the supernatants was read at 532 nm against a standard curve prepared using the MDA standard (10 mM 1,1,3,3-tetramethoxypropane in 20 mM Tris-HCL, pH 7.4). Results were calculated as nmol of MDA equivalents/mg of protein and expressed as a percentage of matched control values.

Jurkat cells [2] = assay: Measurement of reactive oxygen intermediates (ROI) by flow cytometry; assay type: cell-based, human; settings: pretreated 1 h, TNF 1 nM 4 h
Protocol: The production of ROI in cells treated with TNFα or LPS was determined by flow cytometer as described by (Manna, S. K. et. al., J. Immunol. (1999) 162(3):1510-1518). Briefly Jurkat cells (5×10^5 cells in one ml) were incubated either with RPMI 1640 medium supplemented with 10% FBS or with complete media containing different concentrations of CAMVE for 1 h at 37° C. Cells were then stimulated with 1 nM of TNF for 4 h. After incubation, the cells were washed with D-PBS, and resuspended in 1 ml D-PBS. To detect ROI production, cells were exposed to Dihydrorhodamine 123 (5 mM stock) at a final concentration of 1 μM for 1 hr at 37° C. with moderate shaking (100 rpm) and then washed with D-PBS three times and resuspended in 1 ml of D-PBS. Rhodamine 123 fluorescence intensity resulting from Dihydrorhodamine 123 oxidation was measured by FACS Calibur (Becton Dickinson) with excitation at 488 nm and was detected between […]. Data was analyzed using Cell Quest software (Becton Dickinson).

U937 = assay: Cytotoxicity (MTT) in different human tumor cell lines; assay type: cell-based; settings: 30 μM, 72 h
Protocol: FIG. 9: CAMVE induces differential cytotoxicity in different human tumor cell lines. Different human tumor cell lines were cultured either in the presence or absence of CAMVE (30 μM) for 72 h. The MTT assay was done and absorbance taken at 570 nm. The result indicated are mean O.D. of triplicate culture.
Cytotoxicity was assayed by the modified tetrazolium salt 3-(4,5-dimethylthiazol-2-yl)-2,5-diphenyltetrazolium bromide (MTT) assay as described by Plumb, J A et al. (Cancer Res. 1989 Aug. 15; 49(16):4435-4440).

NF-κB [3] = assay: NF-κB activation assay, MCF-7; assay type: cell-based, human; settings: MCF-7, 15 μM 3 h, 0.1 nM TNF 30 min
Protocol: (§1) FIG. 4: Effect of CAMVE on NF-κB activation in different cell lines. A. HeLa, MCF-7, U937, were incubated at 37° C. for 3 h with 15 μM dose of CAMVE and then stimulated with 0.1 nM TNF for 30 min. After these treatments, nuclear extracts were prepared and assayed for NF-κB using BD Transfactor ELISA method. B. RAW 264.7 cells pretreated with indicated doses of CAMVE were stimulated with 100 ng/ml LPS for 30 min and assayed for NF-κB activation.
(§2) Cell pellet was resuspended in lysis buffer (10 mM HEPES, pH 7.9, 1.5 mM MgCl2, 10 mM KCl, 1 mM PMSF, 1 mMDTT, 0.5% NP 40, 0.1 mM EGTA and 0.1 mM EDTA) and allowed to swell on ice for 15 min, followed by centrifugation at 3300×g for 20 min. The cell pellet was resuspended in a volume of lysis buffer equal to the cell pellet volume. The cell suspension was slowly drawn down into a syringe and ejected the content in a single stroke. Disrupted cells were incubated for 15 min on ice, and the disrupted cell suspension was centrifuged at 10,000×g for 20 min at 4° C. […]
(§3) The assay was performed by using wells coated with oligonucleotides having the consensus DNA binding sites for the specific transcription factors. […] Bound transcription factor was detected by a specific Primary Antibody. […] After addition of the substrate, the Absorbance was recorded at 655 nm.

NF-κB [4] = assay: NF-κB activation assay, HeLa; assay type: cell-based, human; settings: 15 μM 3 h, 0.1 nM TNF 30 min
Protocol: as §1, §2, §3

HeLa cells = assay: Apoptosis by PARP cleavage (FACS), HeLa; assay type: cell-based, human; settings: 100 nM, 24 h
Protocol: (§4) FIG. 19: Effect of compound 27 on the apoptosis in cells with different p53 status. Extent of apoptosis in different cells was measured by staining the cells for PARP cleavage followed by FACS analysis. Cells were treated with 100 nM of the compound for 24 h and the level of apoptosis was seen. Percentage apoptotic populations are represented as the M2 gated population.
(§5) PARP Cleavage Assay using Flow Cytometry: Extent of PARP cleavage is determined using polyclonal antibody specifically recognizing the 85 kDa fragment of cleaved PARP (NSB 699 Novus Biologicals) and can be used as a marker for detecting apoptotic cells. Treated cells were fixed with 70% chilled ethanol and permeabilized for 30 min at RT (PBS+0.5% BSA+0.02% NaN3+0.5% saponin) and stained with anti PARP-FITC (10 μl/10^6 cells) for one hour at RT. Cells were washed twice with wash buffer (PBS+1% heat inactivated FBS) and analysed using FACS.

U937 cell line = assay: Apoptosis by PARP cleavage (FACS), U937; assay type: cell-based, human; settings: U937, 100 nM, 24 h
Protocol: as §4, §5

COC(=O)c1ccc(OC(=O)/C=C/c2ccc(O)c(O)c2)c(OC)c1 [compound 1, Methyl 4-{[(2E)-3-(3,4-dihydroxyphenyl)prop-2-enoyl]oxy}-3-methoxybenzoate]
TNF induced lipid peroxidation (Jurkat cells [1]): significantly suppressed by CAMVE in a dose dependent manner | TNF induced ROI generation (Jurkat cells [2]): suppressed on pretreatment of cells with CAMVE in a dose dependent fashion | CAMVE mediated cell death (MTT), sensitivity among tumor cell lines (U937): most sensitive to CAMVE treatment | TNF-induced NF-κB activation (NF-κB [3]): blocks TNF-induced NF-κB activation | TNF-induced NF-κB activation (NF-κB [4]): blocks TNF-induced NF-κB activation

COc1cc([C@@H]2Oc3c(OC)cc(/C=C/C(=O)O)cc3[C@H]2C(=O)O)ccc1O [compound 27, 5-[(E)-2-carboxyvinyl]-2β-(4-hydroxy-3-methoxyphenyl)-7-methoxy-2,3-dihydro-1-benzofuran-3α-carboxylic acid]
level of apoptosis (PARP cleavage) (HeLa cells): significant induction of apoptosis | level of apoptosis (PARP cleavage) (U937 cell line): does not show induction of apoptosis
